Test results taken from paper PMC4958397, “Synthesis, antibacterial and antiproliferative potential of some new 1-pyridinecarbonyl-4-substituted thiosemicarbazide derivatives” (Medicinal Chemistry Research, 2016).
Converted amounts (≈) assume the structure as drawn.

How the values were obtained:
[1] = tested on: pathogenic microaerobic bacteria (causing dental caries); assay: Broth microdilution MIC, summary in text; format: cell-based; details: range over compounds and strains; read-out: MIC against pathogenic microaerobic bacteria
From the text: (§1) Panel reference strains of bacteria from the American Type Culture Collection or Polish Collection of Microorganisms, including aerobic Gram-positive bacteria: Staphylococcus aureus ATCC 25923 and Staphylococcus epidermidis ATCC 12228, and aerobic Gram-negative bacteria: Escherichia coli ATCC 25922 and Pseudomonas aeruginosa ATCC 9027, as well as microaerobic Gram-positive bacteria: Lactobacillus spp., Lactobacillus acidophilus PCM 2105, Streptococcus mutans PCM 2502 and Streptococcus sanguinis PCM 2335, were used. Microbial suspensions with an optical density of 0.5 McFarland standard at 1.5 × 10^8 CFU/mL (CFU: colony forming unit) were prepared in sterile 0.9 % NaCl. Mueller–Hinton (M–H) broth and M–H agar (Oxoid Ltd., England) for aerobic strains, and MRS Broth Lactobacillus, MRS Agar Lactobacillus (BioMaxima S.A., Poland), BHI Broth and BHI agar (BioMaxima S.A., Poland) for microaerobic strains were used in the microbial tests.
(§2) A broth microdilution method was used to evaluate the minimum inhibition concentration (MIC) according to the CLSI document (CLSI performance standards for antimicrobial susceptibility testing, 2008, Eighteenth International Supplement, CLSI document M7-MIC, Clinical Laboratory Standards Institute, Wayne) with some modifications. […] A serial doubling dilution of the compounds was prepared in 96-well plates (200 μL per well). A suitable medium (M-H Broth, MRS Broth Lactobacillus, BHI Broth) was used as a diluent. The final concentrations of derivatives were 1000–0.015 μg/mL. Finally, 2 μL of inoculum of the tested bacterial strain (1.5 × 10^8 CFU/mL) was added to each well. The tests were performed either at 36 °C for 18 h (aerobic strains) or at 40 h (microaerobic strains). After incubation, the panel was digitally analyzed at 600 nm using the microplate reader Bio Tech Synergy (USA) with a dedicated software system. The growth intensity in each well was compared with the negative and positive controls.

[2] = tested on: aerobic Gram-positive bacteria; assay: Broth microdilution MIC, summary in text; format: cell-based; details: range over compounds and strains; read-out: MIC against aerobic Gram-positive bacteria
From the text: as §1, §2

[3] = tested on: Streptococcus mutans PCM 2502; assay: Disk diffusion, zone of bacterial growth inhibition; format: cell-based; details: for zone of inhibition at 100 µg/disc: Streptococcus mutans, PCM2502, 100 μg of compound, read-out: Zone of bacterial growth inhibition, S.m
From the text: as §1
(§3) The preliminary antibacterial activity of the carbazide derivatives against human pathogenic Gram-positive, Gram-negative aerobic and microaerobic bacteria was evaluated by measuring the zones of inhibition in the disk diffusion method (Murray et al., [1995]). Each compound (100 µg) was placed on Petri plates with agar medium (previously inoculated with 0.5 McFarland standards with the tested bacterial strains). After 18 h of incubation at 37 °C (for aerobic strains) or 40 h at 35 °C (for microaerobic strains), zones of microbial growth produced around the tested substances were measured and recorded as the diameters of inhibition.

[4] = tested on: Staphylococcus aureus ATCC 25923; assay: as above; format: cell-based; details: for zone of inhibition at 100 µg/disc: Staphylococcus aureus, ATCC25923, 100 μg of compound, read-out: Zone of bacterial growth inhibition, S.a
From the text: as §1, §3

[5] = tested on: Pseudomonas aeruginosa ATCC 9027; assay: as above; format: cell-based; details: for zone of inhibition at 100 µg/disc: Pseudomonas aeruginosa, ATCC9027, 100 μg of compound, read-out: Zone of bacterial growth inhibition, P.a
From the text: as §1, §3

[6] = tested on: Lactobacillus acidophilus PCM 210; assay: as above; format: cell-based; details: for zone of inhibition at 100 µg/disc: Lactobacillus acidophilus, PCM210, 100 μg of compound, read-out: Zone of bacterial growth inhibition, L.a
From the text: as §1, §3

[7] = tested on: Staphylococcus epidermidis ATCC 12228; assay: as above; format: cell-based; details: for zone of inhibition at 100 µg/disc: Staphylococcus epidermidis, ATCC12228, 100 μg of compound, read-out: Zone of bacterial growth inhibition, S.e
From the text: as §1, §3

[8] = tested on: Escherichia coli ATCC 25922; assay: as above; format: cell-based; details: for zone of inhibition at 100 µg/disc: Escherichia coli, ATCC25922, 100 μg of compound, read-out: Zone of bacterial growth inhibition, E.c
From the text: as §1, §3

Lactobacillus spp. = assay: as above; format: cell-based; details: 100 μg of compound; for zone of inhibition at 100 µg/disc: Lactobacillus, read-out: Zone of bacterial growth inhibition, L.spp.
From the text: as §1, §3

[9] = tested on: Streptococcus sanguinis PCM 2335; assay: as above; format: cell-based; details: for zone of inhibition at 100 µg/disc: Streptococcus sanguinis, PCM2335, 100 μg of compound, read-out: Zone of bacterial growth inhibition, S.s
From the text: as §1, §3

[10] = tested on: Lactobacillus acidophilus PCM 210; assay: Broth microdilution MIC; format: cell-based; details: for MIC: Lactobacillus acidophilus, PCM210, NA means inactive, read-out: Minimum inhibitory concentration (MIC), L. acidophilus
[11] = tested on: Streptococcus mutans PCM 2502; assay: Broth microdilution MIC; format: cell-based; details: for MIC: Streptococcus mutans, PCM2502, NA means inactive, read-out: Minimum inhibitory concentration (MIC), S. mutans
From the text: as §1, §2

[12] = tested on: Staphylococcus aureus ATCC 25923; assay: Broth microdilution MIC; format: cell-based; details: for MIC: Staphylococcus aureus, ATCC25923, NA means inactive, read-out: Minimum inhibitory concentration (MIC), S. aureus
From the text: as §1, §2

[13] = tested on: Pseudomonas aeruginosa ATCC 9027; assay: Broth microdilution MIC; format: cell-based; details: for MIC: Pseudomonas aeruginosa, ATCC9027, NA means inactive, read-out: Minimum inhibitory concentration (MIC), P. aeruginosa
From the text: as §1, §2

[14] = tested on: Staphylococcus epidermidis ATCC 12228; assay: Broth microdilution MIC; format: cell-based; details: for MIC: Staphylococcus epidermidis, ATCC12228, NA means inactive, read-out: Minimum inhibitory concentration (MIC), S. epidermidis
From the text: as §1, §2

[15] = tested on: Escherichia coli ATCC 25922; assay: Broth microdilution MIC; format: cell-based; details: NA means inactive; for MIC: Escherichia coli, ATCC25922, broth microdilution, read-out: Minimum inhibitory concentration (MIC), E. coli; for Minimum inhibitory concentration (MIC), E. coli: broth microdilution
From the text: as §1, §2

[16] = tested on: Streptococcus sanguinis PCM 2335; assay: Broth microdilution MIC; format: cell-based; details: for MIC: Streptococcus sanguinis, PCM2335, NA means inactive, read-out: Minimum inhibitory concentration (MIC), S. sanguinis
From the text: as §1, §2

tested bacterial strains = assay: Disk diffusion, summary over all tested strains; format: cell-based; details: 100 μg; range over strains
From the text: as §1, with “Mueller–Hinton (M–H) broth and M–H agar (Oxoid Ltd., England) for aerobic strains, and MRS Broth Lactobacillus, MRS Agar Lactobacillus (BioMaxima S.A., Poland), BHI Broth and BHI agar (BioMaxima S.A., Poland) for microaerobic strains were used in the microbial tests.” left out
as §3, with “Each compound (100 µg) was placed on Petri plates with agar medium (previously inoculated with 0.5 McFarland standards with the tested bacterial strains).” left out

Row | MIC [2] [µg/mL] | melting point [°C] | MIC [10] [µg/mL] | MIC [11] [µg/mL] | MIC [12] [µg/mL] | MIC [13] [µg/mL] | MIC [14] [µg/mL] | MIC [16] [µg/mL] | SMILES | zone of inhibition at 100 µg/disc [3] [mm] | zone of inhibition at 100 µg/disc [4] [mm] | zone of inhibition at 100 µg/disc [5] [mm] | zone of inhibition at 100 µg/disc [6] [mm] | zone of inhibition at 100 µg/disc [7] [mm] | zone of inhibition at 100 µg/disc [8] [mm] | zone of inhibition at 100 µg/disc (Lactobacillus spp.) [mm] | zone of inhibition at 100 µg/disc [9] [mm] | other results
1 | 15.6 to 500 | 182 to 184 | 125 (≈ 431 µM) | 250 | 31.2 | 500 | 15.6 | 500 | O=C(NNC(=S)Nc1ccccc1F)c1ccccn1 [Compound 1, 4-(2-Fluorophenyl)-1-(pyridin-2-yl)carbonylthiosemicarbazide] | 10 | 18 | 12 | 12 | 26 | 22 | 24 | 10 | MIC [1]: 7.81 to 500 µg/mL; MIC [15]: 62 to 125 µg/mL; Minimum inhibitory concentration (MIC), E. coli [15]: 62.5 µg/mL
2 | 15.6 to 500 | – | 1000 (≈ 2930 µM) | 250 | 125 | 1000 | 250 | 1000 | O=C(NNC(=S)Nc1ccc(Cl)cc1Cl)c1ccncc1 [Compound 10, 4-(2,4-Dichlorophenyl)-1-(pyridin-4-yl)carbonylthiosemicarbazide] | 28 | 16 | 0 | 0 | 13 | 7 | 0 | 20 | MIC [15]: 1000 µg/mL
3 | – | 202 to 204 | – | – | – | – | – | – | O=C(NNC(=S)Nc1ccccc1F)c1ccncc1 [Compound 9, 4-(2-Fluorophenyl)-1-(pyridin-4-yl)carbonylthiosemicarbazide] | 0 | 0 | 0 | 0 | 0 | 0 | 0 | 0 | –
4 | 15.6 to 500 | 184 to 186 | 500 (≈ 1570 µM) | 31.2 | 250 | > 1000 | 125 | 31.2 | CSc1ccc(NC(=S)NNC(=O)c2ccccn2)cc1 [Compound 5, 4-(4-Methylthiophenyl)-1-(pyridin-2-yl)carbonylthiosemicarbazide] | 0 | 10 | 0 | 19 | 10 | 11 | 11 | 15 | MIC [1]: 7.81 to 500 µg/mL

Further lines, the compound ahead of its results:

Row | SMILES | MIC [2] [µg/mL] | melting point [°C] | MIC [10] [µg/mL] | MIC [11] [µg/mL] | MIC [12] [µg/mL] | MIC [13] [µg/mL] | MIC [14] [µg/mL] | MIC [16] [µg/mL] | zone of inhibition at 100 µg/disc [3] [mm] | zone of inhibition at 100 µg/disc [4] [mm] | zone of inhibition at 100 µg/disc [5] [mm] | zone of inhibition at 100 µg/disc [6] [mm] | zone of inhibition at 100 µg/disc [7] [mm] | zone of inhibition at 100 µg/disc [8] [mm] | zone of inhibition at 100 µg/disc (Lactobacillus spp.) [mm] | zone of inhibition at 100 µg/disc [9] [mm] | other results
5 | CO/N=C(\C(=O)N[C@@H]1C(=O)N2C(C(=O)O)=C(C[N+]3(C)CCCC3)CS[C@H]12)c1csc(N)n1.Cl.[Cl-] [Cefepime, cefepime dihydrochloride, reference compound] | – | – | – | – | – | – | – | – | – | – | – | – | – | – | – | – | Zone of bacterial growth inhibition, S.m ([3]; 100 μg of compound): 32 mm; Zone of bacterial growth inhibition, S.a ([4]; 100 μg of compound): 38 mm; Zone of bacterial growth inhibition, P.a ([5]; 100 μg of compound): 29 mm; Zone of bacterial growth inhibition, L.a ([6]; 100 μg of compound): 31 mm; Zone of bacterial growth inhibition, S.e ([7]; 100 μg of compound): 36 mm; Zone of bacterial growth inhibition, E.c ([8]; 100 μg of compound): 35 mm; Zone of bacterial growth inhibition, L.spp. (Lactobacillus spp.): 29 mm; Zone of bacterial growth inhibition, S.s ([9]; 100 μg of compound): 29 mm; zones of inhibition, all tested strains (tested bacterial strains): 29–38 mm; Minimum inhibitory concentration (MIC), L. acidophilus ([10]; NA means inactive): 3.9 µg/mL; Minimum inhibitory concentration (MIC), S. mutans ([11]; NA means inactive): 0.122 µg/mL; Minimum inhibitory concentration (MIC), S. aureus ([12]; NA means inactive): 0.976 µg/mL; Minimum inhibitory concentration (MIC), P. aeruginosa ([13]; NA means inactive): 0.488 µg/mL; Minimum inhibitory concentration (MIC), S. epidermidis ([14]; NA means inactive): 0.976 µg/mL; Minimum inhibitory concentration (MIC), E. coli [15]: 0.015 µg/mL; Minimum inhibitory concentration (MIC), S. sanguinis ([16]; NA means inactive): 0.122 µg/mL
6 | O=C(NNC(=S)NCCN1CCOCC1)c1ccccn1 [Compound 3, 4-(2-Morpholinoethyl)-1-(pyridin-2-yl)carbonylthiosemicarbazide] | – | 196 to 198 | – | – | – | – | – | – | 0 | 0 | 0 | 0 | 7 | 0 | 0 | 0 | –
7 | CSc1ccc(NC(=S)NNC(=O)c2ccncc2)cc1 [Compound 8, 4-(4-Methylthiophenyl)-1-(pyridin-4-yl)carbonylthiosemicarbazide] | – | 197 to 198 | – | – | – | – | – | – | 0 | 0 | 0 | 0 | 0 | 0 | 0 | 0 | –
